The text below walks through data of paper PMC4704483 (2015).

Where only a bound is given, the exact number is not on record here.

The test system of this assay is (CUG)100, internal fluorescein-labeled (RNA, repeat) CUGCUGCUGCUGCUGCUGCUGCUGCUGCUGCUGCUGCUGCUGCUGCUGCUGCUGCUGCUGCUGCUGCUGCUGCUGCUGCUGCUGCUGCUGCUGCUGCUGCUGCUGCUGCUGCUGCUGCUGCUGCUGCUGCUGCUGCUGCUGCUGCUGCUGCUGCUGCUGCUGCUGCUGCUGCUGCUGCUGCUGCUGCUGCUGCUGCUGCUGCUGCUGCUGCUGCUGCUGCUGCUGCUGCUGCUGCUGCUGCUGCUGCUGCUGCUGCUGCUGCUGCUGCUGCUGCUGCUGCUGCUGCUGCUGCUGCUGCUG
Put plainly: fluorescence titration. To be noted: data not shown.

Regarding `CC[C@H]1OC(=O)[C@H](C)[C@@H](O[C@H]2C[C@@](C)(OC)[C@@H](O)[C@H](C)O2)[C@H](C)[C@@H](O[C@@H]2O[C@H](C)C[C@H](N(C)C)[C@H]2O)[C@](C)(O)C[C@@H](C)C(=O)[C@H](C)[C@@H](O)[C@]1(C)O`, the K d (salt form not stated) is below 1000 nM.

In the case of `NC[C@@H]1O[C@H](O[C@H]2[C@@H](O)[C@H](O[C@@H]3[C@@H](O)[C@H](N)C[C@H](N)[C@H]3O[C@H]3O[C@H](CN)[C@@H](O)[C@H](O)[C@H]3N)O[C@@H]2CO)[C@H](N)[C@@H](O)[C@@H]1O`, the K d is below 1000 nM.
